# From patent US20230313199A1, “TARGET FOR MODULATING BODY MASS” (Massachusetts Institute of Technology, priority 2020, published 2023)
# Columns and labels:
# [1] = molecular target: T1, Mutant NTD (all five histidine residues in the HP repeats mutated to alanine) (Homo sapiens, UniProt Q9UPI3, H30A/H36A/H48A/H54A/H66A); experiment: Heme absorbance-shift assay with mutant NTD; assay type: binding
# T1 construct: Plasmid harboring GST-His-tag-SUMO-NTD (amino acids 1-84); GST-His-tag-SUMO (N, cleaved yes); made in house; host or cells: Escherichia coli
# [2] = system: 4B8^FL cells; experiment: FPT intensity in 4B8 cells complemented with full length MFSD7C; assay type: cell-based, human; conditions: 40 μM heme 1 hour
# Description: FIGS. 4A-4H show NTD of MFSD7C mediates heme effect on mitochondrial respiration. FIGS. 4A-4C show comparison of basal OCR (FIG. 4A), maximal OCR (FIG. 4B) and ECAR (FIG. 4C) of THP-1, 4B8, and 4B8^FL and 4B8^ΔN cells treated with vehicle or heme for 1 hour (n=18 separate experiments). […] Cells were incubated with FPT for 6 hrs, washed and reseeded in poly-lysine coated glass bottom dishes. After cells attached to the glass, medium containing 40 μM heme was added. Cells in the same field were imaged immediately and again 1 hour later. Relative FPT fluorescent intensities, normalized to THP-1, from three experiments are shown. (n=3 independent experiments). […] THP-1 cells were co-cultured with 4B8, 4B8^FL, or 4B8^ΔN in FPT solution for 6 hrs, washed and reseeded in poly-lysine coated glass bottom dishes. […] THP-1, 4B8, 4B8^FL and 4B8^ΔN cells were treated with vehicle or heme for 1 hour and MMP was measured by using JC-10 Mitochondrial Membrane Potential Assay Kit followed by flow cytometry. […] Shown are representative Western blotting data (FIG. 4G) and quantification of band intensities from n=3 independent experiments (FIG. 4H). P-values were calculated using two-way ANOVA (*p<0.05, **p<0.01, ***p<0.005). […]
# In the second approach, we used fluorescent polymeric thermometer (FPT), which we synthesized in-house (see above). […] Then the fluorescence intensities were determined by a flow cytometer.
# [3] = molecular target: T2, MFSD7C and SERCA2b (Mus musculus, UniProt Q91X85); experiment: Co-IP of MFSD7C and SERCA2b in transfected 293T cells; assay type: cell-based, murine; conditions: 293T cells in the presence of MG132, heme for one hour
# T2 construct: expressed in transfected cells; called 293T
# Description: FIGS. 5A-5F show MFSD7C and heme regulate thermogenesis through SERCA2b in THP-1 cells. […] 30 hours later, MG132 was added into half of the cells and the other half was not treated. Another 35 hours later, some cells were treated with 40 μM heme for 1 hour before lysis. Cell lysates were immunoprecipitated with anti-FLAG antibody, and eluted, followed by anti-HA immunoprecipitation and elution. Total cell lysate and elute were subjected to Western blotting and probed with anti-SERCA2b or anti-MFSD7C antibodies. Shown are representative data from one of three experiments. […] 24 hrs later, cells were either not treated or treated with 10 μM MG132 for either 6 or 12 hours. The cells were lysed and subjected to FLAG pull-down and blotted with anti-MFSD7C, anti-SERCA2b and anti-ubiquitin antibodies. Shown are representative data from one of three experiments. […] Parental THP-1 cells were either not treated or treated with heme before lysis. Shown are representative data from one of four experiments. […] Shown are representative data from one of two experiments. […] Cells were washed and treated with 40 μM heme for one hour before flow cytometry. Representative FPT histograms from one of three experiments are shown. […] Shown are representative FPT histograms from one of three experiments. […]
# [4] = system: THP-1 cells; experiment: Oxygen consumption rate (Seahorse XF96e), parental THP-1 cells; assay type: cell-based, human; conditions: 40 μM heme for one hour vs vehicle
# Description: Measurements of OCR, ECAR, and MMP. Oxygen consumption rate (OCR) and extracellular acidification rate (ECAR) were measured using XF96e Seahorse Extracellular Flux Analyzer per manufacturer's protocol. To increase adherence of suspension cells, Seahorse plates were coated with Corning® Cell TAK (Catalog No. 354240). THP-1 and 7CKO cells were then attached to the plate according to the manufacturer's instructions. Cells were incubated in complete RPMI media with or without 40 μM heme. Changes in oxygen consumption were measured following treatment with oligomycin (5 μM), FCCP (2 μM), and rotenone (1 μM) plus antimycin A (1 μM). For BMDM, 5×10^5 cells/well were plated in 100 μL of BMDM media, 24 hours before the start of the assay. For OCR measurements, BMDM media was replaced with 180 μL of Seahorse XF Base Medium supplemented with 10 mM D-glucose, 1 mM sodium pyruvate, and 1 mM L-glutamine. For ECAR measurements, BMDM media was replaced with 180 μL of Seahorse XF RPMI Medium pH 7.4 supplemented with 2 mM L-glutamine. The Glycolysis Stress Test was performed using D-glucose, rotenone/antimycin A, and 2-deoxy-D-glucose at 10 mM, 0.5 μM, and 50 mM final concentration, respectively.
# T2 sequence (Q91X85 whole entry): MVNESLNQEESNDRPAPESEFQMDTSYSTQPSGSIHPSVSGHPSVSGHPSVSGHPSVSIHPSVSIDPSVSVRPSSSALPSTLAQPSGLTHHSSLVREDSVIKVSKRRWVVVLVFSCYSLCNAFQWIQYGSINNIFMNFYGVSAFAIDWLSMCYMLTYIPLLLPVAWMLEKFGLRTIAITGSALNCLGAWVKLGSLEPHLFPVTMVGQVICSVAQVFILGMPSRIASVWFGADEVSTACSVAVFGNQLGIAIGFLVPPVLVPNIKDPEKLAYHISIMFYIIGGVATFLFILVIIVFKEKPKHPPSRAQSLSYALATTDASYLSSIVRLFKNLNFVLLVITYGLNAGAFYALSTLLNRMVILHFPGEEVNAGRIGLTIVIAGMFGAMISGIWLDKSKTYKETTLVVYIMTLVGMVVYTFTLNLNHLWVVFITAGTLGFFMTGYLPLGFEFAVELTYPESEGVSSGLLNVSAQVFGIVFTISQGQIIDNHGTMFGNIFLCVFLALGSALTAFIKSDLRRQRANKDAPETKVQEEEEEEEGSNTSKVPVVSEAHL
# T1 sequence (Q9UPI3 1-84 H30A/H36A/H48A/H54A/H66A): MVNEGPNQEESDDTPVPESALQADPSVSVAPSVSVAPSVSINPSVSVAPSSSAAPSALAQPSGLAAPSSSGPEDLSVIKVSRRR
smiles,measurement,setting,value
C=CC1=C(C)c2cc3[n-]c(cc4[n-]c(cc5nc(cc1n2)C(C)=C5C=C)c(C)c4CCC(=O)O)c(CCC(=O)O)c3C.[Fe+2] [heme],absorbance shift of heme,[1],abolished
same,FPT intensity,[2],increased
same,co-IP of SERCA2b with MFSD7C,[3],abolished
same,basal OCR,[4],increased
same,maximal OCR,[4],increased
